Legend:
Assay type in all cases: biochemical
[1] = target: T1, TAZ (Homo sapiens, UniProt Q9GZV5); experiment: cellular thermal shift assay (CETSA) with western blot; conditions: 100 μM alexidine, 4 h at 4 °C, HEK293T lysate, heated 25-60 °C; destabilising shift
T1 construct: gene WWTR1; endogenous full-length TAZ in HEK293T freeze-thaw lysate (Methods: endogenous)

[2] = target: T2, GST-TAZ / Venus-Flag-TEAD1 (VF-TEAD1) (Homo sapiens, UniProt Q9GZV5); experiment: GST pull-down with western blot densitometry; conditions: HEK293T lysate, 18 h at 4 °C; protein-protein interaction inhibition
T2 construct: gene WWTR1; with Transcriptional enhancer factor TEF-1
T2 sequence (Q9GZV5 whole entry): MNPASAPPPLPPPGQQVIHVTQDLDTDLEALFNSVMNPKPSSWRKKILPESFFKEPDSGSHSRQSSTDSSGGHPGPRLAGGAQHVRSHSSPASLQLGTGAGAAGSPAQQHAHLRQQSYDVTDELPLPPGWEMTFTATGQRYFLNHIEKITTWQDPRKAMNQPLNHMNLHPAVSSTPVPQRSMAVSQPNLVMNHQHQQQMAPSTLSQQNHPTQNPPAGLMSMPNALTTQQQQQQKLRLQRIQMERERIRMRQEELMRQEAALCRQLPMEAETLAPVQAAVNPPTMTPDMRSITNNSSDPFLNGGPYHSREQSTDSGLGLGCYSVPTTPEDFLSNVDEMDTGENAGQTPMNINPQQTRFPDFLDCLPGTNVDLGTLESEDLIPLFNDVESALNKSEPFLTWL
T2 sequence (P28347 whole entry partner): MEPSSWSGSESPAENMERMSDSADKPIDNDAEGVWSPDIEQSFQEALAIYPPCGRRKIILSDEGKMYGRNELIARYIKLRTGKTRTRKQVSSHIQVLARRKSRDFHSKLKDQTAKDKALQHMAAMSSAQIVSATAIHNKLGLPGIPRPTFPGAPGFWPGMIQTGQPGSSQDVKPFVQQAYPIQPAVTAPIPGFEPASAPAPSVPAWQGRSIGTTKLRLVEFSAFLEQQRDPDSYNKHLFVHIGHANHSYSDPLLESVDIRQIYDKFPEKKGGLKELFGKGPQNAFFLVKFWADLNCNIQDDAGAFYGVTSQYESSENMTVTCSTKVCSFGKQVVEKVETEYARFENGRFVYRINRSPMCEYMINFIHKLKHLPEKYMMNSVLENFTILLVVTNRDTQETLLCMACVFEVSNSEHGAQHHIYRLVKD

[3] = target: T3, TAZ-TEAD biosensor (FLAG-SmBiT-TAZ / His-LgBiT-TEAD1) (Homo sapiens, UniProt Q9GZV5); experiment: TR-FRET dose response (anti-FLAG-Tb / anti-His-D2), disruption of TAZ-TEAD1 interaction; conditions: HEK293T lysate, 18 h; protein-protein interaction inhibition
T3 construct: gene WWTR1; FLAG-SmBiT-TAZ aa 13-119 and His-LgBiT-TEAD1 aa 194-411 co-expressed in HEK293T; cell lysate; tags kept; with Transcriptional enhancer factor TEF-1
T3 sequence (Q9GZV5 13-119): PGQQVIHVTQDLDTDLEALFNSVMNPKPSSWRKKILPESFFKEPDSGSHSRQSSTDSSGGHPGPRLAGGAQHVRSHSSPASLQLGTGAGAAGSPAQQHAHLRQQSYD
T3 sequence (P28347 209-426 partner): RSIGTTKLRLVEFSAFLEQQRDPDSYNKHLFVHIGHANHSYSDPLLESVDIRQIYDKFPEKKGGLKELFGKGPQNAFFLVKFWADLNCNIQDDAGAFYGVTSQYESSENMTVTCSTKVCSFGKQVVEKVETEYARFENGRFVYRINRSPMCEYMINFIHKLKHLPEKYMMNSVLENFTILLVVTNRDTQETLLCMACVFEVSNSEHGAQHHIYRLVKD

T1 sequence (Q9GZV5 whole entry): as the sequence (Q9GZV5 whole entry) above

CCCCC(CC)CNC(=N)NC(=N)NCCCCCCNC(=N)NC(=N)NCC(CC)CCCC (stereo not drawn) [alexidine]
Tm [1]: A reduction in TAZ rather than TEAD stability and melting temperature (Tm) was observed | % PPI signal [2]: inhibition of GST-TAZ and VF-TEAD1 interaction was achieved by alexidine treatment | TR-FRET signal [3]: alexidine disrupted TAZ- TEAD PPI in a dose-dependent manner
